Where “and” joins values, the source holds several entries; their conditions need not be identical. Equal entries are not always repeated.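 A five-concentration, 48-hour dose response in 96-well plates underlies each endpoint, interpolated linearly between surrounding concentrations. GI50: concentration for 50% inhibition of growth. TGI: concentration producing complete growth inhibition.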
Columns and labels:
Assay in all cases: inhibition of tumour cell growth, NCI panel, 48 h
[1] = system: SF-268 CNS
[2] = system: NCI-H226 lung
[3] = system: UACC-62 melanoma
[4] = system: UO-31 renal
[5] = system: A498 renal
[6] = system: SK-OV-3 ovarian
[7] = system: PC-3 prostate
[8] = system: CAKI-1 renal
[9] = system: NCI-H522 lung
[10] = system: HL-60(TB) leukemia

Structure (SMILES): COC(=O)/C(=C\c1c(C)[nH]c2ccccc12)S(=O)(=O)c1ccccc1
- GI50 [1]: 3.33 µM
- TGI [1]: 11.1 µM
- GI50 [2]: 4.34 µM
- TGI [2]: 19.5 µM
- GI50 [3]: 2.77 µM
- TGI [3]: 13.3 µM
- GI50 [4]: 4.39 µM
- TGI [4]: 18.4 µM
- GI50 [5]: 5.45 µM
- TGI [5]: 20.9 µM
- GI50 [6]: 9.27 µM
- TGI [6]: 41.4 µM
- GI50 [7]: 5.54 µM
- TGI [7]: > 100 µM
- GI50 [8]: 3.33 µM
- TGI [8]: 16.7 µM
- GI50 [9]: 3.19 µM
- TGI [9]: 14.4 µM

Structure (SMILES): Cc1ccc2c(=O)c3cccc(CC(=O)O)c3oc2c1C
- GI50 [1]: > 100 µM
- TGI [1]: > 100 µM
- GI50 [2]: > 100 µM
- TGI [2]: > 100 µM
- GI50 [3]: > 100 µM
- TGI [3]: > 100 µM
- GI50 [4]: > 100 µM
- TGI [4]: > 100 µM
- GI50 [5]: 70.6 µM
- TGI [5]: > 100 µM
- GI50 [6]: > 100 µM
- TGI [6]: > 100 µM
- GI50 [10]: > 100 µM
- TGI [10]: > 100 µM
- GI50 [7]: > 100 µM
- TGI [7]: > 100 µM
- GI50 [8]: > 100 µM
- TGI [8]: > 100 µM
- GI50 [9]: > 100 µM
- TGI [9]: > 100 µM

Structure (SMILES): C[C@]12CCC(=O)C(O)=C1CC[C@@H]1[C@@H]2CC[C@]2(C)C(=O)CC[C@@H]12
- TGI [1]: > 100 µM
- TGI [2]: > 100 µM
- TGI [3]: > 100 µM
- TGI [4]: > 100 µM
- TGI [5]: > 100 µM
- TGI [6]: > 100 µM
- TGI [10]: > 100 µM
- TGI [7]: > 100 µM
- TGI [8]: > 100 µM
- TGI [9]: > 100 µM

Structure (SMILES): C[C@]12CC[C@@H]3c4ccc(O)cc4CC[C@H]3[C@@H]1CC[C@@H]2NS(=O)(=O)Cc1ccc(Cl)cc1
- GI50 [1]: 3.16 µM
- TGI [1]: 12.5 µM
- GI50 [2]: 3.19 µM
- TGI [2]: 12.6 µM
- GI50 [3]: 1.92 µM
- TGI [3]: 4.56 µM
- GI50 [4]: 1.39 µM
- TGI [4]: 5.13 µM
- GI50 [5]: 1.29 µM
- TGI [5]: 3.87 µM
- GI50 [6]: 3.02 µM
- TGI [6]: 7.77 µM
- GI50 [10]: 3.26 µM
- TGI [10]: 14.5 µM
- GI50 [7]: 2.64 µM
- TGI [7]: 15 µM
- GI50 [8]: 3.06 µM
- TGI [8]: 11.2 µM

Structure (SMILES): CCSc1nc(N=Cc2cccs2)c2cn[nH]c2n1
- GI50 [1]: 6.49 µM
- TGI [1]: > 100 µM
- GI50 [2]: 0.299 µM
- TGI [2]: 43.2 µM
- GI50 [3]: 8.39 µM
- TGI [3]: 23.1 µM
- GI50 [4]: 53.5 µM
- TGI [4]: > 100 µM
- GI50 [5]: 10.9 µM
- TGI [5]: 38.1 µM
- GI50 [6]: 56 µM
- TGI [6]: > 100 µM
- GI50 [7]: 20.7 µM
- TGI [7]: > 100 µM
- GI50 [8]: 18 µM
- TGI [8]: > 100 µM
- GI50 [9]: 48.5 µM
- TGI [9]: > 100 µM

Structure (SMILES): CCOC(CN=c1nc(N(C)C)ss1)OCC
- TGI [1]: 59.8 µM
- TGI [2]: 36 µM
- TGI [3]: 21.4 µM
- TGI [4]: 63.3 µM
- TGI [5]: > 100 µM
- TGI [6]: > 100 µM
- TGI [10]: 12 µM
- TGI [7]: 32 µM
- TGI [8]: 41.3 µM
- TGI [9]: 1.45 µM

Structure (SMILES): S=C(N/N=C/c1ccccn1)Nc1ccccn1
- GI50 [1]: 2.29 µM
- TGI [1]: > 100 µM
- GI50 [2]: 2.08 µM
- TGI [2]: 11.8 µM
- GI50 [4]: 1.01 µM
- TGI [4]: > 100 µM
- GI50 [5]: 1.62 µM
- TGI [5]: 33.9 µM
- GI50 [6]: 2.29 µM
- TGI [6]: > 100 µM
- GI50 [10]: 0.316 µM
- TGI [10]: 1.25 µM
- GI50 [7]: 1.46 µM
- TGI [7]: > 100 µM
- GI50 [8]: 1.31 µM
- TGI [8]: > 100 µM
- GI50 [9]: 0.241 µM
- TGI [9]: 0.842 µM

Structure (SMILES): O=C(C(Br)Br)C(Br)C(Br)c1ccccc1 (stereo unspecified)
- GI50 [1]: 4.04 µM
- TGI [1]: 16.9 µM
- GI50 [2]: 3.31 µM
- TGI [2]: 15.4 µM
- GI50 [3]: 3.25 µM
- TGI [3]: 11.5 µM
- GI50 [4]: 2.5 µM
- TGI [4]: 7.86 µM
- GI50 [5]: 19.7 µM
- TGI [5]: 35 µM
- GI50 [6]: 17.2 µM
- TGI [6]: 31.1 µM
- GI50 [10]: 5.82 µM
- TGI [10]: 25.7 µM
- GI50 [7]: 3.67 µM
- TGI [7]: 15.2 µM
- GI50 [8]: 1.78 µM
- TGI [8]: 3.37 µM
- GI50 [9]: 1.81 µM
- TGI [9]: 3.48 µM

Structure (SMILES): COc1nc(C)cc2c(=O)n(-c3ccccc3)n(CCCN3CCN(c4ccc(Cl)cc4)CC3)c(=O)c12
- GI50 [1]: 37.7 µM
- TGI [1]: > 50 µM
- GI50 [2]: > 50 µM
- TGI [2]: > 50 µM
- GI50 [3]: 39.9 µM
- TGI [3]: > 50 µM
- GI50 [4]: 31.9 µM
- TGI [4]: > 50 µM
- GI50 [5]: > 50 µM
- TGI [5]: > 50 µM
- GI50 [6]: 32.8 µM
- TGI [6]: > 50 µM
- GI50 [10]: > 50 µM
- TGI [10]: > 50 µM
- GI50 [7]: 15.3 µM
- TGI [7]: > 50 µM
- GI50 [8]: 38.2 µM
- TGI [8]: > 50 µM
- GI50 [9]: 28.6 µM
- TGI [9]: > 50 µM

Structure (SMILES): O=C1c2ccccc2-c2c1c1ccccc1c(=O)n2CCNCCNCCn1c2c(c3ccccc3c1=O)C(=O)c1ccccc1-2
- GI50 [1]: 0.241 µM
- TGI [1]: 10 µM
- GI50 [2]: 0.22 µM
- TGI [2]: 18.9 µM
- GI50 [3]: 0.338 µM
- TGI [3]: 8.79 µM
- GI50 [4]: 0.519 µM
- GI50 [5]: 14.4 µM
- TGI [5]: 29.9 µM
- GI50 [6]: 12.8 µM
- TGI [6]: 36.2 µM
- GI50 [10]: 98.5 µM
- TGI [10]: > 100 µM
- GI50 [7]: 0.701 µM
- TGI [7]: 19.3 µM
- GI50 [8]: 0.527 µM
- TGI [8]: 18.4 µM
- GI50 [9]: 2.28 µM

Structure (SMILES): CNC(=O)c1cccc(-c2ccc3c(N4CCOC[C@@H]4C)nc(N4CCOC[C@@H]4C)nc3n2)c1
- GI50 [1]: 0.0653 µM and 0.209 µM and 0.212 µM
- TGI [1]: 10.5 µM and > 6.59 µM and > 100 µM
- GI50 [2]: 0.0438 µM and 0.149 µM and 0.115 µM
- TGI [2]: 0.77 µM and 2.9 µM and 0.959 µM
- GI50 [3]: 0.0393 µM and 0.082 µM and 0.0802 µM
- TGI [3]: 0.339 µM and 0.438 µM and 0.452 µM
- GI50 [4]: 0.0278 µM and 0.0604 µM and 0.0328 µM
- GI50 [5]: 0.0183 µM and 0.0258 µM and < 0.0141 µM
- TGI [5]: 0.0827 µM and 0.142 µM and 0.0801 µM
- GI50 [6]: 0.0333 µM and 0.0903 µM and 0.0446 µM
- TGI [6]: 0.479 µM and 0.451 µM and 0.438 µM
- GI50 [10]: 0.353 µM and 0.37 µM and 2.91 µM
- TGI [10]: 25.2 µM and > 10 µM and 64.1 µM
- GI50 [7]: 0.0219 µM and 0.0809 µM and 0.0384 µM
- GI50 [8]: 0.0693 µM and 0.148 µM and 0.144 µM
- TGI [8]: 1.83 µM and > 3.36 µM
- GI50 [9]: 0.0505 µM and 0.0991 µM and 0.0479 µM
- TGI [9]: > 100 µM

Structure (SMILES): N=C(N)CCCCCCCCC(=N)N
- GI50 [1]: 42.6 µM
- TGI [1]: > 100 µM
- GI50 [2]: 15.7 µM
- TGI [2]: > 100 µM
- GI50 [3]: 64.8 µM
- TGI [3]: > 100 µM
- GI50 [4]: 18.2 µM
- TGI [4]: > 100 µM
- GI50 [5]: 11.6 µM
- TGI [5]: 68.5 µM
- GI50 [6]: 22.1 µM
- TGI [6]: > 100 µM
- GI50 [10]: 29.5 µM
- TGI [10]: > 100 µM
- GI50 [7]: 37 µM
- TGI [7]: > 100 µM
- GI50 [8]: 7.37 µM
- TGI [8]: > 100 µM
- GI50 [9]: 41.4 µM
- TGI [9]: > 100 µM

Structure (SMILES): COc1ccc(/C=C2/C[N+](C)(C)C/C(=C/c3ccc(OC)cc3)C2=O)cc1
- TGI [1]: > 94.4 µM
- TGI [2]: > 100 µM
- TGI [3]: 47.5 µM
- TGI [4]: > 100 µM
- TGI [5]: > 100 µM
- TGI [6]: > 100 µM
- TGI [10]: 44.4 µM
- TGI [8]: > 100 µM
- TGI [9]: 37.9 µM

Structure (SMILES): O=C(c1ccccc1)c1c(C(=O)c2ccccc2)c(-c2ccccc2)c2c(-c3ccccc3)sc(-c3ccccc3)c2c1-c1ccccc1
- TGI [1]: > 100 µM
- TGI [2]: > 100 µM
- TGI [3]: > 100 µM
- TGI [4]: > 100 µM
- TGI [5]: > 100 µM
- TGI [6]: > 100 µM
- TGI [10]: > 100 µM
- TGI [8]: > 100 µM
- TGI [9]: > 100 µM

Source: PubChem BioAssay (NCI)
